Assay results: PMC8661056, “Synthesis and Evaluation of [^11C]7-Halogen-2-Phenyl Isoindolone Derivatives: Potential PET Radioligands for in vivo Imaging of 5-HT2C Receptors” (Frontiers in Neuroscience, 2021)

Legend:
5-HT2CR [1] = test system: 5-HT2CR; parameters: method as in Neelamegam et al., 2014; settings: PET imaging; ref Neelamegam et al., 2014; cited from earlier work
5-HT2C = target: T1, 5-HT2C (Homo sapiens, UniProt P28335); experiment: 5-HT2C competition binding assay with [^3H]mesulergine (NIMH PDSP); settings: for Ki: competition with [^3H]mesulergine, mean of three experiments ± SD, read-out: Binding affinity Ki, 5-HT2C; for 5-HT2C binding less than that for 9: relative to compound 9
T1 sequence (P28335 33-458): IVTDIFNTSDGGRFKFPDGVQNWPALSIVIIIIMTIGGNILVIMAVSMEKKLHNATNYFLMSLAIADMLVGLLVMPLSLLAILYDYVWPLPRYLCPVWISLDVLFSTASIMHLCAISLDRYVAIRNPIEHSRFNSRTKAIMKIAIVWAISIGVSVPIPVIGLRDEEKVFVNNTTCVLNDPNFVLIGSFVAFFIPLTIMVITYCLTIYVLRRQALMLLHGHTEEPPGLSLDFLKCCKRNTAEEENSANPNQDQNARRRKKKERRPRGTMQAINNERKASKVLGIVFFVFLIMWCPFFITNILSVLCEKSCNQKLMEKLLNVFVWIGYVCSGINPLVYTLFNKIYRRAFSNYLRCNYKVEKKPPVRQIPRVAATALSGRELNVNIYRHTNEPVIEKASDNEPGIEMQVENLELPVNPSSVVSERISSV
From the text: (§1) We selected 6 and 9 for carbon-11 radiolabelling and PET imaging studies.

5-HT2A [2] = target: T2, 5-HT2A (Homo sapiens, UniProt P28223); experiment: competition binding assay (NIMH PDSP), 5-HT2A; settings: read-out: Binding affinity Ki, 5-HT2A
T2 sequence (P28223 whole entry, species assumed): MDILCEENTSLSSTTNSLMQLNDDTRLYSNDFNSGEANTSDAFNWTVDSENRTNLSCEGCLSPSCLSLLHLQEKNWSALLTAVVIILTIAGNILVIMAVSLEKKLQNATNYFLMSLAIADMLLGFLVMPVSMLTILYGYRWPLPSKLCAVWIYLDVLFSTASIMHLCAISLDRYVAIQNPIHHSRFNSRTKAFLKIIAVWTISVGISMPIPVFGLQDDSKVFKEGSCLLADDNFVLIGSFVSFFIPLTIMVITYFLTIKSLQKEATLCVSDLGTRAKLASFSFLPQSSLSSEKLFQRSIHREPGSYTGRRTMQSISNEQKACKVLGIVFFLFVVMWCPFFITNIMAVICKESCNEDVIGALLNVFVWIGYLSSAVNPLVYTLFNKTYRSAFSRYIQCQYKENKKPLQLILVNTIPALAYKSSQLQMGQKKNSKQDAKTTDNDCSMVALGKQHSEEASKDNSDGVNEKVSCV

5-HT2B = 5-HT2B (Homo sapiens, UniProt P41595); experiment: competition binding assay (NIMH PDSP), 5-HT2B; settings: mean of three experiments ± SD, read-out: Binding affinity Ki, 5-HT2B
Sequence of 5-HT2B (P41595 whole entry, species assumed): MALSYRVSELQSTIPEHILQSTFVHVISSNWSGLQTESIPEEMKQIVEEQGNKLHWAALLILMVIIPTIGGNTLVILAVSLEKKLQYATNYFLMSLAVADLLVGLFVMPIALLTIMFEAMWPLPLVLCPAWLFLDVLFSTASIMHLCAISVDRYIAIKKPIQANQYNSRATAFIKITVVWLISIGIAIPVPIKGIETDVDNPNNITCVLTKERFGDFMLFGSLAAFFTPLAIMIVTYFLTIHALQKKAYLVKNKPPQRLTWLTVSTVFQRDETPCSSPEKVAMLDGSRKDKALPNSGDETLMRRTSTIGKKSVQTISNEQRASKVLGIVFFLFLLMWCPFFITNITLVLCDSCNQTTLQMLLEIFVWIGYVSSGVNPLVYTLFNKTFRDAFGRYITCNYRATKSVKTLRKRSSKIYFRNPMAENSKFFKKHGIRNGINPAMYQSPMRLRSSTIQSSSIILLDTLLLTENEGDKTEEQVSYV

5-HT1A = target: T3, 5-HT1A (Homo sapiens, UniProt P08908); experiment: competition binding assay (NIMH PDSP), 5-HT1A; settings: read-out: Binding affinity Ki, 5-HT1A
T3 sequence (P08908 1-422): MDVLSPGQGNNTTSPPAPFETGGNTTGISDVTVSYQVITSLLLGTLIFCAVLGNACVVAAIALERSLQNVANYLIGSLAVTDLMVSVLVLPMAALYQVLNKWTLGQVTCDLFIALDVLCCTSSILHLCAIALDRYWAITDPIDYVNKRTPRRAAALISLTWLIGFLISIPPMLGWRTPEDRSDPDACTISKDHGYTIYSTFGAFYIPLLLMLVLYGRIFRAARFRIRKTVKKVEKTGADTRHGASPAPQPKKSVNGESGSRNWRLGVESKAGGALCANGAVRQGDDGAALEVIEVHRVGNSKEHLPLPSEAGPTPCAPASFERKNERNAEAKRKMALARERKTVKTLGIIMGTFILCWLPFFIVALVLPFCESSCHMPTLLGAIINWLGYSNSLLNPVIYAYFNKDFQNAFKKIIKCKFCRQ

5-HT5–7 = experiment: competition binding assay (NIMH PDSP), 5-HT5–7; settings: read-out: Binding affinity Ki, 5-HT5–7
D1-D5 = experiment: competition binding assay (NIMH PDSP), dopamine D1-D5; settings: read-out: Binding affinity Ki, D1-D5
5-HT2A [3] = target: T2, 5-HT2A; experiment: primary binding, 5-HT2A
From the text: as §1

[4] = parameters: method as in Hamprecht et al., 2007; settings: ref Hamprecht et al., 2007; cited from earlier work
[5] = lipophilicity, octanol/phosphate buffer partition; format: physicochemical; settings: pH 7.4, read-out: log P7.4
Method: [^11C]6 and [^11C]9 were prepared via O-methylation of 10 and 11 with [^11C]CH3I in the presence of 0.1 M Bu4NOH in DMF followed by HPLC purification, respectively. [^11C]6 and [^11C]9 were obtained in an average radiochemical yield of 37–44 ± 4% (n = 10, decay corrected) with ≥97% radiochemical and chemical purity. The total synthesis time was 50 ± 5 min end of bombardment and the specific activity were in the range of 0.5–1.2 Ci/μmol at time of injection. The lipophilicities of 6 and 9 (octanol/phosphate buffer partition) were measured. The log P7.4 values of [^11C]6 and [^11C]9 are 2.81 and 2.89, respectively, which are in the optimal range (1.0–3.0) for compounds expected to enter the brain readily.

5-HT2CR [6] = target: T4, 5-HT2CR (Rattus norvegicus, UniProt P08909); experiment: microPET/CT brain imaging in rats; format: in vivo, Sprague–Dawley rats
T4 construct: from tissue; host or cells: brain of living Sprague–Dawley rats (choroid plexus, hippocampus)
T4 sequence (P08909 33-460): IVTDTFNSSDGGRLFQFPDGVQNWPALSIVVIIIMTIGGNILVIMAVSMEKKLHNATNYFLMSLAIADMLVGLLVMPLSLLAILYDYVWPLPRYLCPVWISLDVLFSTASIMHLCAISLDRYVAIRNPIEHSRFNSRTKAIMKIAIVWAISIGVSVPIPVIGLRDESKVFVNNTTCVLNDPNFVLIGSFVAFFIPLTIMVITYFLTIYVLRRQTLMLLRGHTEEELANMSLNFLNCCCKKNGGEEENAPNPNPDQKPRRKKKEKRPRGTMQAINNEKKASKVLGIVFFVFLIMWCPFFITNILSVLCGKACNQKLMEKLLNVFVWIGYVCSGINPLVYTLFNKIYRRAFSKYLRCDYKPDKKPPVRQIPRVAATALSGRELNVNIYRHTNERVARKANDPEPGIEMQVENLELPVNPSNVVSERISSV
Method: [^11C]6 and [^11C]9 were intravenously administered to Sprague–Dawley rats and brain images were acquired with a Siemens Inveon microPET/CT imaging system, respectively (Figure 2).
FIGURE 2 PET analysis of [^11C]6 and [^11C]9 in Sprague–Dawley rats. (A) Summed images of [^11C]6 PET/CT data from 10 to 120 min p.i. at baseline. Orange arrows depict choroid plexus; Blue arrows depict hippocampus. (B) Summed images of [^11C]6 PET/CT data from 10 to 120 min p.i. after pretreatment with 0.1 mg/kg of SB-242084. (C) Mean (n = 3) time-activity curves for brain regions of interest of [^11C]6 at baseline with standard error. (D) Mean (n = 3) time-activity curves for brain regions of interest of [^11C]6 after pretreatment with 0.1 mg/kg of SB-242084 with standard error. (E) Mean (n = 3) time-activity curves for brain regions of interest of [^11C]9 at baseline with standard error. (F) Mean (n = 3) time-activity curves for brain regions of interest of [^11C]9 after pretreatment with 0.1 mg/kg of SB-242084 with standard error.

5-HT2CR [7] = experiment: microPET brain imaging in rhesus monkeys; format: in vivo; settings: rhesus monkey
From the text: [^11C]6 and [^11C]9 were further evaluated in rhesus monkeys using a Siemens MicroPET Focus 220 scanner (Figure 3). […] Ratios of uptake in choroid plexus, hippocampus, amygdala, frontal cortex to that in cerebellum peaked at 2.7, 1.6, 1.3, and 1.1, respectively.
FIGURE 3 PET-MRI analysis of [^11C]6 and [^11C]9 in rhesus monkey. (A) MicroPET images of [^11C]6 (left) and corresponding fused PET/MRI images summed over all time at baseline. (B) MicroPET images [^11C]6 (left) and corresponding fused PET/MRI images summed over all time after pretreatment with 0.1 mg/kg of SB-242084. (C) Time-activity curves of [^11C]6 for brain regions of interest at baseline study. (D) Time-activity curves of [^11C]6 for brain regions after pretreatment with SB-242084. (E) Time-activity curves of [^11C]9 for brain regions of interest at baseline study. (F) Time-activity curves of [^11C]9 for brain regions after pretreatment with SB-242084.
To test specific binding of [^11C]6 and [^11C]9 to the choroid plexus and hippocampus, an in vivo microPET blocking study was performed with 0.1 mg/kg SB-242084 30 min prior to injection, respectively. Unfortunately, due to the unexpected low solubility of SB-242084 in the injection form (10% ethanol in saline), the administered SB-242084 in soluble form to the monkeys was likely much less than the target 0.1 mg/kg. As a result, the uptake of [^11C]6 and [^11C]9 in the choroid plexus and hippocampus was still present.

[8] = i.v., baseline, from time-activity curves

| SMILES | Ki (5-HT2C) [nM] | 5-HT2C binding less than that for 9 (5-HT2C) | Ki (5-HT2A [2]) [nM] | Ki (5-HT2B) [nM] | Ki (5-HT1A) [nM] | Ki (5-HT5–7) [nM] | Ki (D1-D5) [nM] | primary bindings at 5-HT2A (5-HT2A [3]) [%] | brain permeability as measured by brain to blood plasma ratio [4] | further results |
| --- | --- | --- | --- | --- | --- | --- | --- | --- | --- | --- |
| c1cc2c3c(c1)[C@H]1CCC[C@H]1N3CCN[11CH2]2 [[^11C]WAY-163909] | – | – | – | – | – | – | – | – | – | non-specific binding in baboon brains (5-HT2CR [1]): high |
| COc1ccc(N2Cc3cccc(Cl)c3C2=O)cc1OCCN1CCC(C)CC1 [Compound 6, 7-chloro-2-[4-methoxy-3-[2-(4-methylpiperidin-1-yl)ethoxy]phenyl]isoindolin-1-one] | 2.2 ± 0.3 | 2–3 times | > 1000 | 194 ± 74 | > 1000 | > 1000 | > 1000 | < 50 | great | – |
| COc1ccc(N2Cc3cccc(Br)c3C2=O)cc1OCCN1CCC(C)CC1 [Compound 7] | 2.9 ± 0.7 | 2–3 times | > 1000 | 177 ± 75 | > 1000 | > 1000 | > 1000 | < 50 | great | – |
| CC1CCN(CCOc2cc(N3Cc4cccc(Cl)c4C3=O)ccc2O[11CH3])CC1 [[^11C]6, [^11C]7-Chloro-2-[4-methoxy-3-[2-(4-methylpiperidin-1-yl)ethoxy]phenyl]isoindolin-1-one] | – | – | – | – | – | – | – | – | – | logD [5]: 2.81; effect of pretreatment with SB-242084 on uptake (5-HT2CR [6]; 0.1 mg/kg SB-242084 prior to injection): reduction of radioactivity uptake in choroid plexus and hippocampus to the same level as of the cerebellum; ratio of uptake in choroid plexus to cerebellum, peak (5-HT2CR [6]; [8]): 1.8; ratio of uptake in hippocampus to cerebellum, peak (5-HT2CR [6]; [8]): 1.2; blood-brain barrier penetration (5-HT2CR [7]): excellent; SUV in choroid plexus (peak uptake) (5-HT2CR [7]; baseline): 5.6; SUV in hippocampus (5-HT2CR [7]; baseline): 4.6; ratio of uptake in amygdala to cerebellum, peak (5-HT2CR [7]; baseline): 1.3; ratio of uptake in choroid plexus to cerebellum, peak (5-HT2CR [7]; baseline): 2.7; ratio of uptake in frontal cortex to cerebellum, peak (5-HT2CR [7]; baseline): 1.1; ratio of uptake in hippocampus to cerebellum, peak (5-HT2CR [7]; baseline): 1.6; time of peak radioactivity uptake in choroid plexus (5-HT2CR [7]; baseline, after injection): 20 to 30 min; time of peak uptakes in hippocampus, amygdala, frontal cortex and cerebellum (5-HT2CR [7]; baseline, postinjection): 9.5 to 18.5 min; effect of pretreatment with SB-242084 on uptake in choroid plexus and hippocampus (5-HT2CR [7]; target 0.1 mg/kg SB-242084 30 min prior to injection (soluble dose likely much less)): a reduction in the uptake and faster washout |
| COc1ccc(N2Cc3cccc(F)c3C2=O)cc1OCCN1CCC(C)CC1 [Compound 8] | 28 ± 14 | – | > 1000 | 434 ± 204 | > 1000 | > 1000 | > 1000 | – | – | – |
